Laboratory results as given in ChEMBL document CHEMBL5252509, “In depth analysis of kinase cross screening data to identify chemical starting points for inhibition of the Nek family of kinases” (Medchemcomm, 2018).

What was measured:
[1] = molecular target: T1, Eukaryotic translation initiation factor 2-alpha kinase 3 (Homo sapiens, UniProt Q9NZJ5); experiment: Inhibition of PERK (unknown origin)
T1 sequence (Q9NZJ5 whole entry): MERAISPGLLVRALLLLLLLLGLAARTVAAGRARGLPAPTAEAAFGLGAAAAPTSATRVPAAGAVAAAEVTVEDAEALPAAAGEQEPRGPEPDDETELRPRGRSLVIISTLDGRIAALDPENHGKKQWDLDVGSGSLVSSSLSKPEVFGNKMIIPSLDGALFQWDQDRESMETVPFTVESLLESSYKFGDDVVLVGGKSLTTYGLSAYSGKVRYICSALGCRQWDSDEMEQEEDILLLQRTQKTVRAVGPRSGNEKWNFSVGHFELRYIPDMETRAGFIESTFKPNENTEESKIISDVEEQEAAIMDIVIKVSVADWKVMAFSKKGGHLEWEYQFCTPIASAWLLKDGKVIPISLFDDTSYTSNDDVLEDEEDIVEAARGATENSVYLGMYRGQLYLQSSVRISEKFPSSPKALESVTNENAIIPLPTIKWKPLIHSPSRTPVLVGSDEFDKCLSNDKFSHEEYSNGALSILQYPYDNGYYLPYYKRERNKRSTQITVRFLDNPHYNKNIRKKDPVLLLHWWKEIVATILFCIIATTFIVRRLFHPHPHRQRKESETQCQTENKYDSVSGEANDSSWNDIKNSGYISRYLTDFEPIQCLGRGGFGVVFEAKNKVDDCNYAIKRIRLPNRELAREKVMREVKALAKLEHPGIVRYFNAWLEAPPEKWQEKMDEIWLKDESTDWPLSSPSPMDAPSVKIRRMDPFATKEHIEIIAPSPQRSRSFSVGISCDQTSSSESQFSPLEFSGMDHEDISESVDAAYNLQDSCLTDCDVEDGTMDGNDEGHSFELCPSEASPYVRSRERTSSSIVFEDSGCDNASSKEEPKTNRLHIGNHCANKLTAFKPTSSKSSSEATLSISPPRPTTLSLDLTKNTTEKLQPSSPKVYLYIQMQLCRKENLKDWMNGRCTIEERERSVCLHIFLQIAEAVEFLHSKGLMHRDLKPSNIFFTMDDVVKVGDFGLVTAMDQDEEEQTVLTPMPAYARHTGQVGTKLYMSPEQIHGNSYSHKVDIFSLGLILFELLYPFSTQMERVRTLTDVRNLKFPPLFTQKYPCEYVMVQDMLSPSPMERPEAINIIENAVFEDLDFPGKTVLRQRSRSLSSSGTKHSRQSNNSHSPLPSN

[2] = molecular target: Serine/threonine-protein kinase Nek4 (Homo sapiens) (UniProt P51957); experiment: Inhibition of NEK4 (unknown origin) at 10 uM relative to control
[3] = molecular target: T2, Serine/threonine-protein kinase Nek2 (Homo sapiens) (UniProt P51955); experiment: Inhibition of NEK2 (unknown origin) at 10 uM relative to control
T2 sequence (whole entry): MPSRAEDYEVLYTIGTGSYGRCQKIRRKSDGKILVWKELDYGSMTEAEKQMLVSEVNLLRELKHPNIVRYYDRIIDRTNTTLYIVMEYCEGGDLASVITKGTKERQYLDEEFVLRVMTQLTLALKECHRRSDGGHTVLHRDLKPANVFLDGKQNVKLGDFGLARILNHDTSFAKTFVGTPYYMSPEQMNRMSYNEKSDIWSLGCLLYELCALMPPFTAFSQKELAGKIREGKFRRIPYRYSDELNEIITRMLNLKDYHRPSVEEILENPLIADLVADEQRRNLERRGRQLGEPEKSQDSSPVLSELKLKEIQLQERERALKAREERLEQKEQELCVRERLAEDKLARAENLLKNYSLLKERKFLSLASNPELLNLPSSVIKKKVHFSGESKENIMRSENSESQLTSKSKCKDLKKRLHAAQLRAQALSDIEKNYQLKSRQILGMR

[4] = molecular target: Serine/threonine-protein kinase Nek6 (Homo sapiens) (UniProt Q9HC98); experiment: Inhibition of NEK6 (unknown origin) at 10 uM relative to control
[5] = molecular target: Serine/threonine-protein kinase Nek7 (Homo sapiens) (UniProt Q8TDX7); experiment: Inhibition of NEK7 (unknown origin) at 10 uM relative to control
[6] = molecular target: Serine/threonine-protein kinase Nek2 (Homo sapiens, UniProt P51955); experiment: Inhibition of NEK2 (unknown origin) assessed as dissociation constant
[7] = molecular target: Mitogen-activated protein kinase 8 (Homo sapiens, UniProt P45983); experiment: Inhibition of JNK1 (unknown origin)
[8] = molecular target: T3, Serine/threonine-protein kinase Nek10 (Homo sapiens) (UniProt Q6ZWH5); experiment: Inhibition of NEK10 (unknown origin) at 10 uM relative to control
T3 sequence (whole entry): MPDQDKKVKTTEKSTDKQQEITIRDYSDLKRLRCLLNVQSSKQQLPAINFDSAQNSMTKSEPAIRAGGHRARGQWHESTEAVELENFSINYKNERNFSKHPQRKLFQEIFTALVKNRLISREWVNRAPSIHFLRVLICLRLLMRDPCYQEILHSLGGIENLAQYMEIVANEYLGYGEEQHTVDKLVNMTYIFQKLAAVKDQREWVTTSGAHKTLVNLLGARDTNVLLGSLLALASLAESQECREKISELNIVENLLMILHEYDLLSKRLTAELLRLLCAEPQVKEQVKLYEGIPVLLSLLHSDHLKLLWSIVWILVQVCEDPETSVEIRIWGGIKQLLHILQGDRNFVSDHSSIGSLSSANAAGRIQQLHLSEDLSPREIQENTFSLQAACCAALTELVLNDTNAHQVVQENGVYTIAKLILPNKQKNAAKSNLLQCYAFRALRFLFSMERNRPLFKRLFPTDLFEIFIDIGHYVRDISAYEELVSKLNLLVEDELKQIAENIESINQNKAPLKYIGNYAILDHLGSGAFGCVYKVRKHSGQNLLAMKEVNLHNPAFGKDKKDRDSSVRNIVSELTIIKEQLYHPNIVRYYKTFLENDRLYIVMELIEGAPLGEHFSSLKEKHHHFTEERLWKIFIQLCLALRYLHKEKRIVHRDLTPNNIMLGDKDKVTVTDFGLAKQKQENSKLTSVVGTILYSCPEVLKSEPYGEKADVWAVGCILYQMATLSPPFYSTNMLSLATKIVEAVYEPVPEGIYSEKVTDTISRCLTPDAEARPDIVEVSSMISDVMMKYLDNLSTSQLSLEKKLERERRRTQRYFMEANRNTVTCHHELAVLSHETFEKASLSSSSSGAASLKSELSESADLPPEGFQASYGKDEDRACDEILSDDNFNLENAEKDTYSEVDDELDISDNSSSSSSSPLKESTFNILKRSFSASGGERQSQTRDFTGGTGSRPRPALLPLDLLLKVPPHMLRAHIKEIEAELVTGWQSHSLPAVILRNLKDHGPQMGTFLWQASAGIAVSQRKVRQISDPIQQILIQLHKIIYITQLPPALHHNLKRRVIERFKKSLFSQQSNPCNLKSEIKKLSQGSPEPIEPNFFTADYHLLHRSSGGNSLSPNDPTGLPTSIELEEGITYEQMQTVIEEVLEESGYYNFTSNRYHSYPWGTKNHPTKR

Serine/threonine-protein kinase Nek4 (Homo sapiens), sequence (P51957 whole entry, looked up): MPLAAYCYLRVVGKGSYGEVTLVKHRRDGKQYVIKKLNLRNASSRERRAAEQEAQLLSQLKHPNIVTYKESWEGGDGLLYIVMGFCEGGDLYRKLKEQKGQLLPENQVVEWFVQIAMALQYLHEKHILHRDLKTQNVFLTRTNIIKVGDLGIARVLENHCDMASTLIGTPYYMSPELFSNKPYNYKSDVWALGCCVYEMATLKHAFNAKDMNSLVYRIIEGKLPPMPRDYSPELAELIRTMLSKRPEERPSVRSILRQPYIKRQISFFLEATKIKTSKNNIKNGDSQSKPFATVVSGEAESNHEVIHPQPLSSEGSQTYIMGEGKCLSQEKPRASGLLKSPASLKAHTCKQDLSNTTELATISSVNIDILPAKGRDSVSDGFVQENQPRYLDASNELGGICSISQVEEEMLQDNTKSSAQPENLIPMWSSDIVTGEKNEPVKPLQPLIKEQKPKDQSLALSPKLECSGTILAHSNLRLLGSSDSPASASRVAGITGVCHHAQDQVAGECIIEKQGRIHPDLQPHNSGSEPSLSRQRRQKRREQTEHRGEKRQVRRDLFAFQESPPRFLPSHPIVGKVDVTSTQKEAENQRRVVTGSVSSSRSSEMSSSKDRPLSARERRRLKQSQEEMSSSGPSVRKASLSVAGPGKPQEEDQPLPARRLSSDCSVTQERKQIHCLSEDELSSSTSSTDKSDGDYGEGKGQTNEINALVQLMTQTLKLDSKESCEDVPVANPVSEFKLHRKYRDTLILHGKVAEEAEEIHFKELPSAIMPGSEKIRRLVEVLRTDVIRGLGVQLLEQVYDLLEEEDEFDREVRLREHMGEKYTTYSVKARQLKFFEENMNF
Serine/threonine-protein kinase Nek6 (Homo sapiens), sequence (Q9HC98 whole entry): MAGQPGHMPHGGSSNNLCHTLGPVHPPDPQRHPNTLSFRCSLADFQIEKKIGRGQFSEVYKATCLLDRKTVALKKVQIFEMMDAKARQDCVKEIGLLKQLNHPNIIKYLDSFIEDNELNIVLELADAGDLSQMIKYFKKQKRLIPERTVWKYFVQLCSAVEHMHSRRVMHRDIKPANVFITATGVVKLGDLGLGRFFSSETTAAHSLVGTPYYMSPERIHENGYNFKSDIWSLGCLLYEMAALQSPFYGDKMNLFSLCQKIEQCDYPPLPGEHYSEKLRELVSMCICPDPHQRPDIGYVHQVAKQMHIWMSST
Serine/threonine-protein kinase Nek7 (Homo sapiens), sequence (Q8TDX7 whole entry, looked up): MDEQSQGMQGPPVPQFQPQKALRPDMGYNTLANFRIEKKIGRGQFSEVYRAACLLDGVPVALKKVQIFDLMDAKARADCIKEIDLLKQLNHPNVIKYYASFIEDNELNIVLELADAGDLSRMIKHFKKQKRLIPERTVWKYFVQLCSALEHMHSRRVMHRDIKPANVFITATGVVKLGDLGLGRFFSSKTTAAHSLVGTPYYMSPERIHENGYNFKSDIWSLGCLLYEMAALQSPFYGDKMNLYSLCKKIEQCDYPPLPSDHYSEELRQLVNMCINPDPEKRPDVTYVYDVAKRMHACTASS
Mitogen-activated protein kinase 8, sequence (P45983 whole entry): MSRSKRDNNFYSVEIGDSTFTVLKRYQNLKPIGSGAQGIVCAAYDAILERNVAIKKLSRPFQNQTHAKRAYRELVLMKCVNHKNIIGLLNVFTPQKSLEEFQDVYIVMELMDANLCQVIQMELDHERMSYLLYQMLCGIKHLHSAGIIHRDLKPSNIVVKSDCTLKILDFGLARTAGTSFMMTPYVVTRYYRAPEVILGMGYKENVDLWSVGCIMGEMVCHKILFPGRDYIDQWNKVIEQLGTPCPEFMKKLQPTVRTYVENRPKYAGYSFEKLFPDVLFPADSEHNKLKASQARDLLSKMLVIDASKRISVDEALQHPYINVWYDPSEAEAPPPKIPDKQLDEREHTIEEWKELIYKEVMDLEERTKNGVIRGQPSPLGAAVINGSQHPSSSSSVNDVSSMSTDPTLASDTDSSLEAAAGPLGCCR

IC50 [1] [nM]	% control [2] [%]	% control [3] [%]	% control [4] [%]	% control [5] [%]	IC50 [7] [nM]	% control [8] [%]	Compound	Kd [6] [nM]
< 15	–	–	–	–	–	–	Nc1nccc2scc(-c3ccc4c(c3)CCN4C(=O)Cc3ccccc3)c12	–
< 15	–	–	–	–	–	–	Cn1cc(-c2cnc(N)c3c(-c4ccc5c(c4)CCN5C(=O)Cc4ccccc4)csc23)cn1	–
< 15	–	–	–	–	–	–	Nc1nccc2scc(-c3ccc4c(c3)CCN4C(=O)Cc3cc(F)ccc3F)c12	–
< 15	–	–	–	–	–	–	Nc1ncc(-c2cn[nH]c2)c2scc(-c3ccc4c(c3)CCN4C(=O)Cc3ccccc3)c12	–
–	96	64	81	88	–	0	O=C1NC(=O)/C(=C/c2ccc3nccc(-c4ccncc4)c3c2)S1	–

Further lines, the compound ahead of its results:

Compound	IC50 [1] [nM]	% control [2] [%]	% control [3] [%]	% control [4] [%]	% control [5] [%]	IC50 [7] [nM]	% control [8] [%]	Kd [6] [nM]
Cc1cc(NC(=O)c2cccc(NC(=O)/C=C/CN(C)C)c2)ccc1Nc1nccc(-c2cccnc2)n1	–	79	100	100	100	–	–	–
COc1cccc(C2=C(Nc3ccc(Cl)c(C(=O)O)c3)C(=O)NC2=O)c1	–	–	–	–	–	–	–	460
Cc1ccc(CC(=O)N2CCc3cc(-c4cn(C)c5ncnc(N)c45)ccc32)cc1	17	–	–	–	–	–	–	–
CN(C)C/C=C/C(=O)Nc1ccc(C(=O)Nc2cccc(Nc3nccc(-c4cccnc4)n3)c2)cc1	–	100	1.1	2.8	9.8	–	–	–
Cc1ccc(NC(=O)c2ccc(NC(=O)/C=C/CN(C)C)cc2)cc1Nc1nccc(-c2cccnc2)n1	–	100	100	44	20	–	–	–
CN(C)C/C=C/C(=O)Nc1cccc(C(=O)Nc2ccc(Nc3nccc(/C(C#N)=C4\Nc5ccccc5S4)n3)cc2)c1	–	100	99	100	100	–	–	–
CN(C)C/C=C/C(=O)Nc1cccc(C(=O)Nc2ccc(Nc3nccc(-c4cccnc4)n3)cc2)c1	–	83	86	17	7	41	–	–
Fc1cc(-c2cc[nH]/c(=N/c3ccc(-n4cnc(N5CCOCC5)n4)cc3)n2)cc(N2CCOCC2)c1	–	100	94	76	45	–	–	–
CN(C)C/C=C/C(=O)Nc1cccc(C(=O)Nc2ccc(Nc3nccc(-c4c(-c5ccccc5)nn5ccccc45)n3)cc2)c1	–	100	93	100	100	–	–	–
